The pIC50 is −log10 of the IC50, conventionally taken in molar units. Read a high pIC50 as a small IC50.

pIC50: −log10 of the molar value.

From ChEMBL document CHEMBL5365506, “Novel Haloacethydrazides as AEP Inhibitors for Treating Alzheimer's Disease” (ACS Med Chem Lett, 2023) come the findings set out here.

In this assay the target is T1, Legumain (Homo sapiens, UniProt Q99538).
T1 sequence (Q99538 whole entry): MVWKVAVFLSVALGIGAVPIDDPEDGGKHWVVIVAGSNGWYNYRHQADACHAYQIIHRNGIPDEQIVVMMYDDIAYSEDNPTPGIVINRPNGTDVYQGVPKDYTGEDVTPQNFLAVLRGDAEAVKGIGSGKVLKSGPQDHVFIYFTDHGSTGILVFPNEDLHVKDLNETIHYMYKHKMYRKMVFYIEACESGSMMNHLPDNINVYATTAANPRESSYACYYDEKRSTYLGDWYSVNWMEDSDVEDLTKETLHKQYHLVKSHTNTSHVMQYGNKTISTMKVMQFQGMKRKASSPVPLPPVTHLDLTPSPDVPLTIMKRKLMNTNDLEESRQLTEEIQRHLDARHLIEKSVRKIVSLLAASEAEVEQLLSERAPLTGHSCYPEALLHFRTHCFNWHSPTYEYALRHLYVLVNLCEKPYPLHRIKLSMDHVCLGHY
In words: Inhibition of human 8His-tagged AEP (V18 to Y433 residues) using Z-Ala-Ala-Asn-Rhl 10-(D-Pro) as substrate incubated for 30 mins followed by substrate addition by fluorescence based microplate reader analysis.

Take `NC(=O)CN(NC(=O)[C@@H]1CCCN1C(=O)C1(c2ccc(Cl)cc2)CCC1)C(=O)CF`: the pIC50 is 9.00. Next, `COc1ccc(-c2ccc(S(=O)(=O)N3CCC[C@H]3C(=O)NN(CC(N)=O)C(=O)CF)cc2)cc1`: 9.00; `C#CCOc1ccc(C2(C(=O)N3CCC[C@H]3C(=O)NN(CC(N)=O)C(=O)CF)CC2)cc1`: 9.00. Consider `C#Cc1ccc(C2(C(=O)N3CCC[C@H]3C(=O)NN(CC(N)=O)C(=O)CF)CC2)cc1`, for which the negative logarithm of the IC50 (pIC50) was 9.00.
